14 compounds from ChEMBL document CHEMBL5465560, “Selectivity Literature for EUbOPEN Chemogenomic Library” (2024) can be followed below.

Test [1] deals with T1, Tyrosine-protein kinase ITK/TSK (Homo sapiens) (UniProt Q08881).
T1 sequence (whole entry): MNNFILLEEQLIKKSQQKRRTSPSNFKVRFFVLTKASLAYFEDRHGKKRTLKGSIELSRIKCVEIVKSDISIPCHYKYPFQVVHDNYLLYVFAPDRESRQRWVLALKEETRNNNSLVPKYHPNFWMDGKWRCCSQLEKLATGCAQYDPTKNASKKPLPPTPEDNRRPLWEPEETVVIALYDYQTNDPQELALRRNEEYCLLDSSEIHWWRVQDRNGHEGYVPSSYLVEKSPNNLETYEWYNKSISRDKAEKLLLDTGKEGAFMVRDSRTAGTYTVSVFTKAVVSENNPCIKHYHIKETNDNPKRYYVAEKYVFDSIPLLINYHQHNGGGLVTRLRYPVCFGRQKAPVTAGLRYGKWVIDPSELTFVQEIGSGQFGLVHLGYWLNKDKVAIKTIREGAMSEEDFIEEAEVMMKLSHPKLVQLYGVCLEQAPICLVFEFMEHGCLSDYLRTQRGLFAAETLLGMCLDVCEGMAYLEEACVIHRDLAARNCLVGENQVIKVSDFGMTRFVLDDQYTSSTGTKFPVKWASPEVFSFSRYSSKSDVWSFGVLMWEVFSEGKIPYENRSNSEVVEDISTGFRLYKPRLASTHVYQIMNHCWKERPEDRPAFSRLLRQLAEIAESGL
The experiment in a line: Selectivity interaction (Upstate Kinase Profiler service (Millipore)) EUB0000056c ITK. The conditions noted are these: at 1 µM.

Test [2] deals with Serine/threonine-protein kinase 33 (Homo sapiens) (UniProt Q9BYT3). The conditions noted are these: at 10 µM.
The target in test [3] is Serine/threonine-protein kinase PAK 4 (Homo sapiens, UniProt O96013). In words: Selectivity interaction (Ambit KINOMEscan and KiNATiv profiling in Jurkat cells) EUB0000090b PAK4. Format: cell-based. To be noted: at 1 µM.
Test [4] addresses Sodium-dependent noradrenaline transporter (Homo sapiens, UniProt P23975). The experiment in a line: Selectivity interaction (GPCR panel (PDSP screen)) EUB0001079a SLC6A2. To be noted: at 10 µM.
Test [5] has as its target Tyrosine-protein kinase Fyn (Homo sapiens) (UniProt P06241). The experiment in a line: Selectivity interaction (KinomeScan (DiscoverX)) EUB0001049a FYN. To be noted: at 1 µM.
Test [6] concerns the target Serine/threonine-protein kinase mTOR (Homo sapiens, UniProt P42345). The experiment in a line: Selectivity interaction (KinomeScan (DiscoverX)) EUB0000655a MTOR. The conditions noted are these: at 10 µM.
The target in test [7] is T2, Mitogen-activated protein kinase 15 (Homo sapiens) (UniProt Q8TD08).
T2 sequence (whole entry): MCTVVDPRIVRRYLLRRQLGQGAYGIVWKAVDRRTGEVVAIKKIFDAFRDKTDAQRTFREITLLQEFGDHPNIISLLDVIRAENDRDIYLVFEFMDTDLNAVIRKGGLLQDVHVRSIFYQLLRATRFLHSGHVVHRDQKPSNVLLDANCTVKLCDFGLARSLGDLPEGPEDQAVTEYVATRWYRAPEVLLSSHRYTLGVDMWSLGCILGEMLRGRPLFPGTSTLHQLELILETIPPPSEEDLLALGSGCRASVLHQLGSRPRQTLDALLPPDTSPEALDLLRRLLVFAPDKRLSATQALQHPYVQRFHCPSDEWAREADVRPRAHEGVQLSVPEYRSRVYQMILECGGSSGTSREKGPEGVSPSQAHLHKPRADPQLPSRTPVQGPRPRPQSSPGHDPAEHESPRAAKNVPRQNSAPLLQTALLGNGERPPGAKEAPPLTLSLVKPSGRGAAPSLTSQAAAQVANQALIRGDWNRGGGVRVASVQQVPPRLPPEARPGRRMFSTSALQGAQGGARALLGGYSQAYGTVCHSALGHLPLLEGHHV
In words: Selectivity interaction (KinomeScan (DiscoverX)) EUB0000695a MAPK15. The conditions noted are these: at 100 nM.

The target in test [8] is High affinity nerve growth factor receptor (Homo sapiens, UniProt P04629). The experiment in a line: Selectivity interaction (Kinase panel (Z-LYTE Assay)) EUB0001632a NTRK1. The conditions noted are these: at 10 µM.
Test [9] concerns the target PAS domain-containing serine/threonine-protein kinase (Homo sapiens) (UniProt Q96RG2). The experiment in a line: Selectivity interaction (SelectScreen profiling (Invitrogen)) EUB0000607a PASK. The conditions noted are these: at 2 µM.
Test [10] has as its target Serine/threonine-protein kinase PLK1 (Homo sapiens, UniProt P53350). In words: Selectivity interaction (ActivX KiNativ screen (kinase selectivity in THP-1 cell lysates)) EUB0000639a PLK1. Format: subcellular. The conditions noted are these: lysate, at 1 µM.
Test [11] has as its target Wee1-like protein kinase (Homo sapiens) (UniProt P30291). In words: Selectivity interaction (Kinase panel (Invitrogen)) EUB0000639a WEE1. The conditions noted are these: at 200 nM.
The target in test [12] is Serine/threonine-protein kinase WNK1 (Homo sapiens) (UniProt Q9H4A3). The experiment in a line: Selectivity interaction (ActivX KiNativ screen (kinase selectivity in THP-1 cell lysates)) EUB0000639a WNK1. The test is classed as subcellular. The conditions noted are these: lysate, at 0.2 µM.
Test [13] has as its target T3, Myosin light chain kinase family member 4 (Homo sapiens) (UniProt Q86YV6).
T3 sequence (whole entry): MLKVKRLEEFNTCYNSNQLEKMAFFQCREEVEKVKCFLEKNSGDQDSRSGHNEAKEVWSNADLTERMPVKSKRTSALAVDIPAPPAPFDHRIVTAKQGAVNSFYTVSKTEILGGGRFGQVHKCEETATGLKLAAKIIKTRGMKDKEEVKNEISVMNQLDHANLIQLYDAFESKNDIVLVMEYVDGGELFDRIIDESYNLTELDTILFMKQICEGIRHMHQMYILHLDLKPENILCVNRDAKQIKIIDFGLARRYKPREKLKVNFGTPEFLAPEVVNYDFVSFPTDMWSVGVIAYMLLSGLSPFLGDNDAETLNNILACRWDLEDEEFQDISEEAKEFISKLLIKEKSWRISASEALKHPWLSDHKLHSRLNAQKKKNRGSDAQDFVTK
In words: Selectivity interaction (KinomeScan (DiscoverX)) EUB0000229b MYLK4. The conditions noted are these: at 10 µM.

Test [14] has as its target Ribosomal protein S6 kinase alpha-6 (Homo sapiens, UniProt Q9UK32). In words: Selectivity interaction (KinomeScan (DiscoverX)) EUB0000229b RPS6KA6. To be noted: at 10 µM.
Test [15] addresses ALK tyrosine kinase receptor (Homo sapiens, UniProt Q9UM73). In words: Selectivity interaction (KinomeScan (DiscoverX)) EUB0000595a ALK. To be noted: at 10 µM.
Test [16] addresses Mitogen-activated protein kinase kinase kinase 10 (Homo sapiens) (UniProt Q02779). The experiment in a line: Selectivity interaction (KinomeScan (DiscoverX)) EUB0000595a MAP3K10. To be noted: at 10 µM.
Test [17] concerns the target Serine/threonine-protein kinase SMG1 (Homo sapiens) (UniProt Q96Q15). The experiment in a line: Selectivity interaction (ActivX KiNativ screen (ex vivo kinase selectivity in human PBMCs)) EUB0001619a SMG1. Format: cell-based. The conditions noted are these: PBMC, at 1 µM.
Test [18] has as its target Wee1-like protein kinase 2 (Homo sapiens) (UniProt P0C1S8). In words: Selectivity interaction (KinomeScan (DiscoverX)) EUB0000618a WEE2. The conditions noted are these: at 10 µM.

Chain of Serine/threonine-protein kinase 33 (Homo sapiens) (Q9BYT3 whole entry, looked up): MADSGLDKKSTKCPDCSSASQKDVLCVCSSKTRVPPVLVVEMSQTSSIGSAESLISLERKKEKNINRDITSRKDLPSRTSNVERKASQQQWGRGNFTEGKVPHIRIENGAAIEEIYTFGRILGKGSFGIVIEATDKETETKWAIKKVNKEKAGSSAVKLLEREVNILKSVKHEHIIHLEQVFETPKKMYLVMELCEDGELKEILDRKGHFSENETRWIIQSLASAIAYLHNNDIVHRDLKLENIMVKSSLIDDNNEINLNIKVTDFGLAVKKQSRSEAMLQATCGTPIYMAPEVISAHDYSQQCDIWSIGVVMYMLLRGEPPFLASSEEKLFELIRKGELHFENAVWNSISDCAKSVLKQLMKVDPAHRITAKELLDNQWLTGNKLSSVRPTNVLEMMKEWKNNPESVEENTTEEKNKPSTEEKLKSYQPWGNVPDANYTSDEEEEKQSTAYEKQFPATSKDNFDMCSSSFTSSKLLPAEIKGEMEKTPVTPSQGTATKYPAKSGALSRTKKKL
Chain of Serine/threonine-protein kinase PAK 4 (O96013 whole entry, looked up): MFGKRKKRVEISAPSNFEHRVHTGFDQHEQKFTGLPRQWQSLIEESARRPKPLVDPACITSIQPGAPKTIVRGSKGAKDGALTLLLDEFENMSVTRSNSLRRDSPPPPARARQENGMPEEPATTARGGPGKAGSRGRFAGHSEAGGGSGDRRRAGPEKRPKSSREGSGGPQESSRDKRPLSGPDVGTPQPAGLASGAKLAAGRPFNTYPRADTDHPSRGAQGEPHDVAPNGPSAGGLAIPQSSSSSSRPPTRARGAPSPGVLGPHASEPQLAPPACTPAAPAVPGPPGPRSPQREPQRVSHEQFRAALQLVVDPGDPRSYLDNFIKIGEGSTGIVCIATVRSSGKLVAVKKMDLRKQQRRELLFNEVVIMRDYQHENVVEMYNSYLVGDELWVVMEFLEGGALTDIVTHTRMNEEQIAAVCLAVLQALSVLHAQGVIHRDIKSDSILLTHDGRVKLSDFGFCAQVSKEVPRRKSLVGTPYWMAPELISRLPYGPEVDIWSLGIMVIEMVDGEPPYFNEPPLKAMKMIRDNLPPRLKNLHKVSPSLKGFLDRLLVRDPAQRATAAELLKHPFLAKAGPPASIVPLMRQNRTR
Chain of Wee1-like protein kinase (Homo sapiens) (P30291 whole entry, looked up): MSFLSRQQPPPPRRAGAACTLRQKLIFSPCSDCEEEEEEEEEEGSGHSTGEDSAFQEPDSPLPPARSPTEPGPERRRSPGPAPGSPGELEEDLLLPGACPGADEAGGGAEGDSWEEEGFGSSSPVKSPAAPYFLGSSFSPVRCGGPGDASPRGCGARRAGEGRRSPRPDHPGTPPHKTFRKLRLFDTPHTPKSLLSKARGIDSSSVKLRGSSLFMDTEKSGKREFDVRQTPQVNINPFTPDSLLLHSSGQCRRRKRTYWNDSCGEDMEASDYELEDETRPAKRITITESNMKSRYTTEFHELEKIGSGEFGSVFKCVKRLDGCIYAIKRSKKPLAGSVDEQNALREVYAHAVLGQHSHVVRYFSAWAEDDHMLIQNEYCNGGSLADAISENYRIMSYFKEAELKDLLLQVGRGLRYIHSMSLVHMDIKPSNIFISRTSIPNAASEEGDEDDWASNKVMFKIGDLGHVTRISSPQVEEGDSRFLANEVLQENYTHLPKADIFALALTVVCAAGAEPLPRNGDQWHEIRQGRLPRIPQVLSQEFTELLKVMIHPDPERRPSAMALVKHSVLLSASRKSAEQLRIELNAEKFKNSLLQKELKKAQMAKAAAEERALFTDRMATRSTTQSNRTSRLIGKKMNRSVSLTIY
Chain of Sodium-dependent noradrenaline transporter (P23975 whole entry): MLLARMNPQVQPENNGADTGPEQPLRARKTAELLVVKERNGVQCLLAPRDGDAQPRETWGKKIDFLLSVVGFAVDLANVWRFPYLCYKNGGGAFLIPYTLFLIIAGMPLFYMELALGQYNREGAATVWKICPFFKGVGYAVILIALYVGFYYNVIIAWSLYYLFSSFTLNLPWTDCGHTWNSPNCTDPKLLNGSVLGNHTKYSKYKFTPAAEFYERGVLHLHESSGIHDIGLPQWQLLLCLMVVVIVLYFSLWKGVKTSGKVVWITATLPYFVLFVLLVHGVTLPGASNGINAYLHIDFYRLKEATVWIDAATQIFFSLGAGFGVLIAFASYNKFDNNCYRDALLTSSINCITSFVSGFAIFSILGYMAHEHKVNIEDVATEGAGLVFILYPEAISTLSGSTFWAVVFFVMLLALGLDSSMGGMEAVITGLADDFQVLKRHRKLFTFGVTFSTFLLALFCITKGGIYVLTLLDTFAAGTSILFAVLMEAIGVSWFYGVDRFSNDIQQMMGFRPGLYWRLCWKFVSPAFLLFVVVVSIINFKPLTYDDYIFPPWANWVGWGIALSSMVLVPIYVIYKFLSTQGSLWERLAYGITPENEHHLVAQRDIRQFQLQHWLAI
Chain of ALK tyrosine kinase receptor (Q9UM73 19-1620 limits assumed): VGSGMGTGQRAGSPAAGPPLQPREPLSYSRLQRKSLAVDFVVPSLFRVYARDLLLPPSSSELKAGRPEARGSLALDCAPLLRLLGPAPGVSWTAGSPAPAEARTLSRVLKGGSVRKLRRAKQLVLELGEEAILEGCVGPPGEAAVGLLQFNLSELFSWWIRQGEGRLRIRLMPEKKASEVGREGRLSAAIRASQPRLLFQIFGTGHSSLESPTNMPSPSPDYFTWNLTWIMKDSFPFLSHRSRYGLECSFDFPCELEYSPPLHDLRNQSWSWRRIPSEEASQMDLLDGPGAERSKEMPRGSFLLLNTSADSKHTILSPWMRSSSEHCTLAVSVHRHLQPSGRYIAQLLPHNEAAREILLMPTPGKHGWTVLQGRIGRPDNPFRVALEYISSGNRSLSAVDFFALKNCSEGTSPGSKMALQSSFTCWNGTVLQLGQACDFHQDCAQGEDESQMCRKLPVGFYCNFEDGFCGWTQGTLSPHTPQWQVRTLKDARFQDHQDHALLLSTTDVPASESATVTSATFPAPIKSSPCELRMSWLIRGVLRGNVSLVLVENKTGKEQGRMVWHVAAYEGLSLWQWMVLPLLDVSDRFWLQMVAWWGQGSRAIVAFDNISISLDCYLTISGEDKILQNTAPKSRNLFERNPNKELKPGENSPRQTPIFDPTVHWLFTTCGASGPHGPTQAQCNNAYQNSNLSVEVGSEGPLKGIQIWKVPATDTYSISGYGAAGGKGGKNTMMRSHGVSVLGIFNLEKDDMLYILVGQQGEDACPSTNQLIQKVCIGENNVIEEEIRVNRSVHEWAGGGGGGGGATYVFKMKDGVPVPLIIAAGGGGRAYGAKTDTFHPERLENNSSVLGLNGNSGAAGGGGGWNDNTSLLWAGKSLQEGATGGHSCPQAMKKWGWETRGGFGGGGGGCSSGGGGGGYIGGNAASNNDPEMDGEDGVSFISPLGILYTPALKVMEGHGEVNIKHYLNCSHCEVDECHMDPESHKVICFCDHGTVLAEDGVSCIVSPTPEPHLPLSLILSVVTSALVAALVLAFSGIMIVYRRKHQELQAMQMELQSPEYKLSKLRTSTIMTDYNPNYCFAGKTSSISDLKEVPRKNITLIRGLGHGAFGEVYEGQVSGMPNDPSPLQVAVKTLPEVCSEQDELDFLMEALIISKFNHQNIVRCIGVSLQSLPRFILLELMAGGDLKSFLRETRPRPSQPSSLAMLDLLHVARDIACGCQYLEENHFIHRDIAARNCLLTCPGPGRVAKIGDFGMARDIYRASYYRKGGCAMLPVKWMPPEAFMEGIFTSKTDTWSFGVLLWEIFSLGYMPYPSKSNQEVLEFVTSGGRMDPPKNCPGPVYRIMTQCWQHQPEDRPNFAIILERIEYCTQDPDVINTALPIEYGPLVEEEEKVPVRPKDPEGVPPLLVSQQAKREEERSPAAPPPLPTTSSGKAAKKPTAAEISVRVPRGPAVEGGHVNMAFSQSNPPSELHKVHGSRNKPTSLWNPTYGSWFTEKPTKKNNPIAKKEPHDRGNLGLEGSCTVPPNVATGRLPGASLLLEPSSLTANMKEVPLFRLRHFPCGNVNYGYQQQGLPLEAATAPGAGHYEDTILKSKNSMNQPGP
Chain of Ribosomal protein S6 kinase alpha-6 (Q9UK32 whole entry): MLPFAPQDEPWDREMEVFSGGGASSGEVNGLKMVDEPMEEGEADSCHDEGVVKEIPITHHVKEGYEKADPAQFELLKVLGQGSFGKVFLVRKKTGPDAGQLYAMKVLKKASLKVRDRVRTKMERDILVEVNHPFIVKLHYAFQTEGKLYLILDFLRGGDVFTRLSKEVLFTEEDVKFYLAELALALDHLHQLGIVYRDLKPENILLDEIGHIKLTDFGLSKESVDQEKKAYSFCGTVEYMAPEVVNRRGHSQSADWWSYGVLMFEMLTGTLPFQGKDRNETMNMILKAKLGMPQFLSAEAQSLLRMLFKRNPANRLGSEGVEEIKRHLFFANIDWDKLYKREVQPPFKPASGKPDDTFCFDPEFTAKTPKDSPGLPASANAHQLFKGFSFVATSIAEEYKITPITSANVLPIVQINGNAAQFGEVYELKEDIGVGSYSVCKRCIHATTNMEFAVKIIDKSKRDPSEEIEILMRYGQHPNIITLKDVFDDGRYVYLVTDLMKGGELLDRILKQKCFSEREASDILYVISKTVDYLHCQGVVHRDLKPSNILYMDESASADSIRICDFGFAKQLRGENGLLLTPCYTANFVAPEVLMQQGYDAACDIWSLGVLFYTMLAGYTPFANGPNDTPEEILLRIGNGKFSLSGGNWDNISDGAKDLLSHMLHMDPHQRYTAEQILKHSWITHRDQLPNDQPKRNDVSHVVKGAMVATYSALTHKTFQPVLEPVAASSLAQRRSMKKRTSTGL

`Cc1ccc(-c2ccc3c(ccc4sc5c(c43)NC[C@@H](C)NC5=O)n2)cn1`: in test [1], the % of inhibition was -1%.

For `Cc1cc([C@@H](C)Nc2ccccc2C(=O)O)c2nc(N3CCOCC3)cc(=O)n2c1` [AZD-6482], the % of control in [2] turned out to be 100%.

With `CN(C)C/C=C/C(=O)Nc1ccc(C(=O)N2CCCC(Nc3ncc(Cl)c(-c4c[nH]c5ccccc45)n3)C2)cc1` (stereo not drawn), the % of control in [3] amounted to 78%.

For the compound `Nc1cnc(N2CCc3cc(S(=O)(=O)Nc4c(F)cc(Cl)cc4F)cc(N4CCCC4=O)c32)nc1` [TP-020n], in test [4], the % of inhibition was determined as 18.2%.

As to `COc1cc(Nc2nc(C)cc(-c3cnn4nc(OC)ccc34)n2)cc(C(F)(F)F)c1`, the % of control in test [5] came to 100%. With `CN(C)CCOc1ccc(-c2nc(-c3ccncc3)c(-c3ccc4c(c3)CC/C4=N\O)[nH]2)cc1`, the % of control in test [6] came out at 75%.

With `Cc1cc(F)c(C(=O)Nc2cccc(-c3nncn3C(C)C)n2)cc1-n1cnc(C2CC2)c1`, in test [7], the % of control was found to be 100%. As for `Cn1cc(-n2cnc3c(NCc4nc5cc(Cl)c(Cl)cc5[nH]4)nc(N4CCOCC4)nc32)cn1`, the % of control in [8] is -5.4%. As to `CNC(=O)Nc1ccc(-c2nc(N3CC4CCC(C3)O4)c3cnn(C4CCC5(CC4)OCCO5)c3n2)cc1`, the % of inhibition in test [9] came to 3%. With `CC[C@@H]1[C@H](F)C(=O)N[C@@H]1COc1nccc2cc(C(N)=O)c(OC)cc12` [ZIMLOVISERTIB], the figures for the % of inhibition in test [10], in test [11] and in test [12] were -2.8%, -0.606% and -12%, respectively. Consider `COc1cc(N(C)c2ccnc3ccc(C(F)(F)F)cc23)cc(OC)c1OC`, for which the % binding amounted to 98% in test [13] and 74% in [14]. With `COCC(=O)NC/C=C/c1ccc2ncnc(Nc3ccc(Oc4ccc(C)nc4)c(C)c3)c2c1` [CP-724714], the % of control in test [15] and in test [16] was 100% in each case. As to `N#Cc1cccc(-c2c[nH]c3ncnc(N4CCOCC4)c23)c1`, the % of inhibition in test [17] is 13%. Regarding `O[C@H]1CC[C@H](Nc2ncc3nc(Nc4c(F)cc(F)cc4F)n([C@H]4CCOC4)c3n2)CC1`, the % of control in [18] is 98%.
